Test results reported in the METLIN SMRT retention time set (Domingo-Almenara et al. 2019).

Assay: gradient 5% acetonitrile 3 min, to 50% in 2 min, to 85% in 15 min, held 3 min, 100 µL/min
Details: column: Zorbax Extend-C18 2.1 x 50 mm; eluents: water / acetonitrile, 0.1% formic acid
Method in brief: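 The system's dead and dwell volumes were 40 μL and 900 μL, with a Zorbax Extend-C18 column (2.1 × 50 mm, 1.8 μm) run at 100 μL/min in water and acetonitrile containing 0.1% formic acid each. Pure standards were analyzed in mixtures of ~100 molecules by HPLC–quadrupole time-of-flight mass spectrometry in positive and negative ionization mode. Retention time was assigned from computationally picked, manually inspected adduct peaks.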

Structure (SMILES) | RP-LC retention time [s]
COc1ccc(C(=O)N2CCN3CCS(=O)(=O)N(C4CC4)C(=O)C3C2)cc1 (configuration not stated) | 715
CC(C)N1CCCn2cc(S(=O)(=O)Nc3ccc(F)cc3)cc2C1=O | 754
Cc1c(-c2ccc(Cl)cc2)noc1C1CCN(CCc2ccccc2)CC1 | 922
COc1cccc(-c2noc(N3CCN(c4ccccn4)CC3)n2)c1OC | 645
O=C(NCC1(N2CCOCC2)CCOC1)Nc1cc(F)cc(F)c1 (configuration not stated) | 604
CCOc1ccc(NC(=O)C2CCCN(c3cnc4nccnc4c3)C2)cc1 (configuration not stated) | 689
CCCn1cc(C(=O)NCc2ccc3c(c2)OCO3)c2cccnc21 | 758
CCOc1ccc(CNC(=O)CC2CCN(C(=O)c3[nH]c(C)c(C(=O)OC)c3C)CC2)cc1 | 750
CSc1cccc(NC(=O)Cn2c(C)nc3c(c2=O)CN(Cc2ccccc2)CC3)c1 | 587
CC(C)c1nc(-n2cccc2)sc1C(=O)NCCc1ccc(S(N)(=O)=O)cc1 | 924
Cc1sc(S(=O)(=O)N2CCSCC2)cc1NC(=O)c1ccc(C(C)(C)C)cc1 | 1150
Cc1cc(N2CCN(c3ccccn3)CC2)n2nc(-c3ccco3)nc2n1 | 584
Cc1ccc(-c2cc3c4nnc(SCC(=O)Nc5ccccc5C(F)(F)F)n4ccn3n2)cc1C | 1020
Cc1ccc(-c2nc(-c3ccc4c(c3)oc(=O)n4C(C)C)no2)cc1C | 1130
CCn1cc(CCN2CCN(C(=O)C3CCCCC3)CC2)c2cccnc21 | 613
O=C(Cn1cccc1-c1nc(-c2ccccc2)cs1)NCCCN1CCCC1 | 601
CCN(CCNC(=O)C1CCN(c2nnc3ccc(Cl)cn23)CC1)c1ccccc1 | 629
CCC(C)(C)NC(=O)c1cc2c(s1)N(CCOC)CCCC2 | 1020
COc1cncc(C(=O)Nc2cc(F)ccc2F)c1 | 735
O=C(NC1CC1)c1nc(C(=O)N2CCN(c3ccc(F)cc3)CC2)cs1 | 788
CCCOc1nc2ccccc2nc1N1CCCC(C(=O)Nc2ccccc2)C1 (configuration not stated) | 1250
CCCc1noc(-c2ccc(-n3ncc(C(=O)NCC)c3C)nc2)n1 | 808
Cc1ccc(C(=O)N2CCC[C@H]2c2nc(-c3ccccc3)n[nH]2)s1 | 740

Structure (SMILES) | RP-LC retention time [s]
CCn1nnc2c(SCC(=O)Nc3cccc(C(F)(F)F)c3)ncnc21 | 866
COC(=O)c1ccc(CSc2nnc(-c3cn(C)nc3OC)n2C)cc1 | 641
CCNC(=O)C1CCN(c2nc3ncn(CC(=O)Nc4ccc(OCC)cc4)c(=O)c3s2)CC1 | 662
O=C(N[C@H]1C[C@@H]2C[C@H]1N(S(=O)(=O)c1cc(F)cc(F)c1)C2)c1ccccc1 | 870
O=c1ccc(N2CCCN(S(=O)(=O)c3ccc(F)c(F)c3)CC2)nn1-c1ccccc1 | 861
CCc1cccc2c1[nH]c1cc(NC(=O)CCc3c(C)[nH]c(=O)[nH]c3=O)ccc12 | 677
CCOC(=O)c1nc(N(CC)c2ccc(CC)cc2)c2ccccc2n1 | 1130
CCNC(=O)c1cc(C)nc2ccc(CC)cc12 | 582
CC1CN(Cc2nc3c(c(=O)n(C)c(=O)n3C)n2CCCc2ccccc2)CC(C)O1 (configuration not stated) | 732
CC1CCN(C(=O)CN2C(=O)C3CCCCN3c3ccc(S(=O)(=O)N4CCCC4)cc32)CC1 (configuration not stated) | 937
Cn1cc(C2=CCN(C(=O)c3cccc(Cl)c3)CC2)c2cccnc21 | 901
O=C(Nc1cccc(Br)c1)C1CCCN(c2ncc(-c3cccc(F)c3)cn2)C1 (configuration not stated) | 1260
COc1ccc(-c2cn3c(CC(=O)Nc4cc(Cl)ccc4OC)csc3n2)cc1 | 847
Cc1onc(-c2ccc(Br)s2)c1C(=O)NCCCN1CCN(C)CC1 | 611
CCOc1ccccc1NC(=O)C1CCCN(c2nc3c(s2)c(C)nn3-c2ccc(C)cc2)C1 (configuration not stated) | 1360
O=c1c2cc(-c3cccs3)nn2cnn1Cc1nc(-c2ccc(OC(F)(F)F)cc2)no1 | 1180
COc1ccc(-c2csc(NC(=O)c3ccc(Br)s3)n2)cc1OC | 990
CCCNC(=O)C1CCCN(c2ccc(SCC(=O)NCc3ccc(C)c(C)c3)nn2)C1 (configuration not stated) | 698
Cc1cc(OCC(=O)N2CCC[C@H]2C(=O)O)c2c3c(c(=O)oc2c1)CCCC3 | 754
COc1ccc(-c2noc(NC3CCCC3)n2)cc1 | 951
Cc1cc2nn(CC(=O)NCC3CCCO3)c(=O)n2c(Nc2ccc(F)cc2)n1 (configuration not stated) | 722
Cc1cc(C)c(NC(=O)/C=C/c2ccccc2)c(C)c1 | 898
CCCn1cnc2cc(CNC(=O)c3cc4cc(Cl)ccc4[nH]3)ccc21 | 720

Structure (SMILES) | RP-LC retention time [s]
Cc1cccc(NC(=O)c2nc3ccccc3[nH]c2=O)c1 | 771
Cc1nnc(N2CCCC(C(=O)NC3CCCCC3)C2)c2nn(-c3ccc(Cl)cc3)c(C)c12 (configuration not stated) | 784
O=C(NCc1ccc2c(c1)OCO2)C(=O)NCC1OCCN1S(=O)(=O)c1ccccc1 (configuration not stated) | 752
CC(C)NC(=O)N1CCCC(c2cccc(C(=O)NCc3ccc4c(c3)OCO4)c2)C1 (configuration not stated) | 822
CCCCOC(=O)c1ccc(NC(=O)c2cnc3scc(C)n3c2=O)cc1 | 1050
CCCOc1nc2ccccc2nc1N1CCCC(C(=O)Nc2ccc(F)c(Cl)c2)C1 (configuration not stated) | 1130
Cn1cc2c3c(cccc31)CN(C(=O)c1ccccc1F)CC2 | 875
O=S(=O)(c1cccn2c(SCc3ccncc3)nnc12)N1CCN(c2ccc(F)cc2)CC1 | 663
CCn1c(SC)nnc1-c1nn(C)c2c1CN(C(=O)c1c(F)cccc1F)CC2 | 765
O=C(Nc1c(-c2ccccc2)nc2ccccn12)c1ccc(Cl)c([N+](=O)[O-])c1 | 696
COc1ccccc1NC(=O)N1CCC(c2nc3ccncc3n2C(C)C)C1 (configuration not stated) | 551
CCOC(=O)c1cc(C)nc2c1c(=O)n(Cc1cccc(F)c1)c(=O)n2C | 1010
NCCc1nc(-c2ccccc2)cs1 | 550
CC(=O)N1CCCSc2ccc(S(=O)(=O)N3CCCC3)cc21 | 774
Cc1ccc(F)cc1NC(=O)c1cc(C(C)C)n2nccc2n1 | 1230
CCn1cc(-c2nc(C)c(C(=O)N3CCN(c4ccccc4)CC3)s2)c2cccnc21 | 994
Cc1cc(F)ccc1NS(=O)(=O)c1cc2n(c1)CCN(C(C)C)C2=O | 773
Cc1ccccc1S(=O)(=O)N1CCc2nc(-c3ccc(Cl)cc3)ncc2C1 | 1240
CCc1nc2ccccc2n1CC(O)COc1cc(C)cc(C)c1 (configuration not stated) | 733
O=C(c1ccc(OCC2CCCN(C(=O)C3CCCC3)C2)cc1)N1CCOCC1 (configuration not stated) | 750
Cc1ccc(Cn2c(=O)n(CCNC(=O)c3ccsc3)c3ncccc32)cc1 | 794
